Paper PMC4096217 (Journal of Medicinal Chemistry, 2014)

Test system: BR+ cancer cell lines (MX-1, MCF-7, ID8, L1210FR)
Experiment: MTT cytotoxicity, 72 h, summarised over the four BR+ cancer cell lines
Type: cell-based
Conditions: Table 1 entries 1 and 2

## SB-T-1214 [taxoid 1]
  Cytotoxicity relative to camptothecin (times stronger): 148–846 times
